Drawing on PubChem BioAssay (NCI), this text covers GI50 and TGI for seven molecules.

Some test systems named below: NCI-H23 lung; PC-3 prostate; LOX IMVI melanoma; SN12C renal; CAKI-1 renal; T-47D breast; COLO 205 colon; NCI/ADR-RES ovarian; A549 NSCLC; SR leukemia.
Assay in all cases: NCI anticancer screen, dose series, 48 h

Structures are written as SMILES. Values joined by “and” are separate entries in the source; they are usually repeats but may differ in a detail not shown here. Identical values can stand only once.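 Results reflect a 48-hour exposure of cells in 96-well plates to compound at five concentrations. Abbreviation: GI50, concentration required for 50% inhibition of growth. TGI is the concentration that stops growth completely.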

Consider `C=CCn1c2ccccc2c2c3c(c4c5ccccc5n(CC=C)c4c21)C(=O)N(O)C3=O`, for which the GI50 with NCI-H23 lung was 3.03 µM; in the assay with PC-3 prostate, 2.69 µM; in the assay with LOX IMVI melanoma it was 0.967 µM; in the assay on SN12C renal it was 3.36 µM; in the assay with CAKI-1 renal it was 1.69 µM; in the assay on T-47D breast, 2.03 µM. Also, the GI50 in the assay with COLO 205 colon is 2.01 µM; in the assay with NCI/ADR-RES ovarian it was 3.43 µM; with A549 NSCLC, 4.47 µM; with SR leukemia it was 0.363 µM. The TGI with NCI-H23 lung came out at 22.2 µM; in the assay on PC-3 prostate, 25.3 µM; in the assay on LOX IMVI melanoma, 2.43 µM; in the assay with SN12C renal it was 13.2 µM; in the assay with CAKI-1 renal, 3.45 µM; in the assay on T-47D breast, 33.2 µM. For the same molecule, the TGI with COLO 205 colon was 9.31 µM; in the assay with NCI/ADR-RES ovarian, 21.9 µM; in the assay with A549 NSCLC it was 55.4 µM; in the assay with SR leukemia, 5.67 µM.
In the case of `CN1CCC2(CC1)N=C(SCC(=O)Nc1cnc3ccccc3c1)C(c1ccc(Br)cc1)=N2`, the GI50 in the assay on NCI-H23 lung is 4.3 µM; with PC-3 prostate it was 1.77 µM; with LOX IMVI melanoma it was 1.66 µM; in the assay on SN12C renal it was 2.1 µM; with CAKI-1 renal, 1.64 µM; in the assay with T-47D breast, 2.24 µM. The GI50 with COLO 205 colon is 1.64 µM; in the assay with NCI/ADR-RES ovarian, 2.27 µM; in the assay with A549 NSCLC, 5.01 µM; with SR leukemia, 2.07 µM. Also, the TGI amounted to 16.3 µM with NCI-H23 lung; 3.74 µM in the assay with PC-3 prostate; 3.11 µM in the assay with LOX IMVI melanoma; 4.99 µM with SN12C renal; 3.94 µM in the assay on CAKI-1 renal; 7.35 µM in the assay on T-47D breast. For the same molecule, the TGI was found to be 3.35 µM in the assay with COLO 205 colon, 5.76 µM with NCI/ADR-RES ovarian, 17.4 µM with A549 NSCLC and 5.29 µM in the assay on SR leukemia.
Turning to `O=C(/C=C/c1ccccc1)c1cccc2ccccc12`, the GI50 is 3.19 µM in the assay on NCI-H23 lung; 2.81 µM in the assay with PC-3 prostate; 1.6 µM with LOX IMVI melanoma; 4.29 µM in the assay on SN12C renal; 2.11 µM in the assay on CAKI-1 renal; 2.89 µM in the assay on T-47D breast. Further, the GI50 with COLO 205 colon is 5.51 µM; with NCI/ADR-RES ovarian it was 3.27 µM; in the assay with A549 NSCLC, 2.96 µM; in the assay with SR leukemia, 1.17 µM. Also, the TGI with NCI-H23 lung worked out at 11.9 µM; in the assay with PC-3 prostate, 7.78 µM; with LOX IMVI melanoma, 4.69 µM; in the assay on SN12C renal, 15.4 µM; with CAKI-1 renal, 6.62 µM; in the assay with T-47D breast, 21.2 µM. Besides, the TGI in the assay on COLO 205 colon is 18.2 µM; in the assay with NCI/ADR-RES ovarian, 19.6 µM; in the assay on A549 NSCLC, 10.3 µM; in the assay on SR leukemia, 3.75 µM.
As for `C=C1c2nc3ccccc3n2C=C(c2cccc(Cl)c2)N1Cc1ccc(OC)cc1`, the GI50 in the assay on NCI-H23 lung is 0.77 µM; in the assay with PC-3 prostate it was 2.21 µM; in the assay with LOX IMVI melanoma, 0.878 µM; in the assay on SN12C renal it was 1.26 µM; with T-47D breast it was 2.55 µM; in the assay with COLO 205 colon, 9.14 µM. Besides, the GI50 was 0.441 µM in the assay on NCI/ADR-RES ovarian, 3.98 µM in the assay with A549 NSCLC and 0.274 µM with SR leukemia. Moreover, the TGI with NCI-H23 lung was more than 35.7 µM; in the assay with PC-3 prostate it was more than 70.3 µM; in the assay on LOX IMVI melanoma it was 21.5 µM; with SN12C renal it was 50.3 µM; in the assay on CAKI-1 renal, 4.71 µM; in the assay with T-47D breast it was more than 80.4 µM. Also, the TGI in the assay with COLO 205 colon was 35.7 µM; with NCI/ADR-RES ovarian, 5.49 µM; in the assay on A549 NSCLC, more than 100 µM; in the assay on SR leukemia, 1.31 µM.
`COC(=O)[C@H](Cc1cn(C)cn1)NC(=O)[C@H](CC(=O)OCc1ccccc1)NC(=O)Nc1cc(C(F)(F)F)cc(C(F)(F)F)c1`: the GI50 with NCI-H23 lung is 15.8 µM; with PC-3 prostate, 12.7 µM; with LOX IMVI melanoma, 2.96 µM; in the assay with SN12C renal it was 4.79 µM; with CAKI-1 renal, 14.1 µM; in the assay on T-47D breast, 7.38 µM and 4.83 µM. Moreover, the GI50 is 3.79 µM with COLO 205 colon; 17.3 µM in the assay with NCI/ADR-RES ovarian; 11.6 µM in the assay on A549 NSCLC; 3.67 µM and 2.04 µM with SR leukemia. Also, the TGI was 30.7 µM in the assay with NCI-H23 lung; 25.7 µM with PC-3 prostate; 8.9 µM in the assay with LOX IMVI melanoma; 17.3 µM with SN12C renal; 27.8 µM with CAKI-1 renal; 18.6 µM in the assay on T-47D breast. Besides, the TGI is 13.8 µM with COLO 205 colon; 35.6 µM in the assay with NCI/ADR-RES ovarian; 25.9 µM in the assay with A549 NSCLC; 9.41 µM and 4.34 µM in the assay with SR leukemia.
In the case of `O=C(O)CCC(c1ccccc1)(c1ccccc1)c1ccccc1`, the TGI is more than 100 µM with NCI-H23 lung; more than 100 µM in the assay on PC-3 prostate; more than 100 µM in the assay on LOX IMVI melanoma; more than 100 µM with SN12C renal; more than 100 µM in the assay on CAKI-1 renal; more than 60.3 µM with T-47D breast. The TGI in the assay with COLO 205 colon was 97.6 µM; with NCI/ADR-RES ovarian it was more than 100 µM; with A549 NSCLC, more than 100 µM; with SR leukemia it was more than 89 µM. Further, the GI50 in the assay with CAKI-1 renal is 66.4 µM.
Take `Cn1c(CCCC(=O)O)nc2cc(N(CCCl)CCCl)ccc21`: the GI50 in the assay with NCI-H23 lung was 74.9 µM; in the assay on PC-3 prostate, more than 100 µM; with LOX IMVI melanoma it was more than 58.8 µM; with SN12C renal, 45.1 µM; with CAKI-1 renal, 53.2 µM; in the assay on T-47D breast, 56.2 µM. The GI50 in the assay with COLO 205 colon is more than 95.8 µM; in the assay on NCI/ADR-RES ovarian, 98.2 µM; in the assay with A549 NSCLC, more than 100 µM; in the assay with SR leukemia it was 40.4 µM. Moreover, the TGI with NCI-H23 lung was more than 100 µM; with PC-3 prostate, more than 100 µM; with LOX IMVI melanoma it was more than 100 µM; in the assay on SN12C renal, more than 100 µM; with CAKI-1 renal, more than 86.8 µM; in the assay with T-47D breast, more than 100 µM. The TGI in the assay on COLO 205 colon, in the assay on NCI/ADR-RES ovarian, in the assay on A549 NSCLC and in the assay on SR leukemia was more than 100 µM in each case.
